The values below come from patent US11229680B2, “Autophagy inhibitors” (The Hong Kong University of Science and Technology, priority 2017, dated 2022).

One test deals with GABARAP. Nature of the test: ITC binding to GABARAP. Set-up: species or system human.
Test [1] concerns p62-positive puncta in COS7 cells. Nature of the test: p62-positive puncta in starved COS7 cells. To be noted: starvation; for p62-positive puncta versus mCherry vector control: COS7 cells expressing mCherry-tagged peptide. The test is classed as cell-based. From the text: We further quantified the level of p62, one of the best studied selective autophagy substrates, to monitor the autophagic flux in COS7 cells expressing various AnkB/G LIR peptides under the starvation condition (Klionsky et al., 2016; Mizushima et al., 2010). Upon autophagy induction, p62 forms aggregates via its LIR motif-mediated interactions to Atg8s and subsequent incorporation into autophagosomes (Bjorkoy et al., 2005; Pankiv et al., 2007). Only a relatively low and steady level of p62 aggregates is formed if autophagy flux is normal (i.e. p62-positive autophagosomes are steadily cleared by fusing with lysosomes; (Bjorkoy et al., 2005)), and this is indeed the case when cells were expressed with the mCherry vector control (FIG. 7F). […] This is consistent with a previous siRNA-based study showing that knockdown of LC3 but not GABARAP causes p62 accumulation in COS7 cells (Maruyama et al., 2014). Taken together, the above cell-based assays reinforce our earlier conclusion derived from biochemical and structural studies, that the AnkB WT peptide can function as potent autophagy inhibitor by targeting all members of the Atg8 family and the AnkG WT or ER peptides can selectively target the GABARAPs and spare the LC3s.

A further test deals with SQST-1::GFP. Nature of the test: SQST-1::GFP aggregate accumulation in C. elegans expressing the peptides. The test is classed as in vivo. From the text: We next determined whether the AnkB WT peptide blocks autophagy in C. elegans. Autophagy is required for degradation of a variety of protein substrates, including the C. elegans p62 homolog SQST-1 during development (Tian et al., 2010). In the wild type animals, SQST-1::GFP is weakly expressed and diffusely localized in the cytoplasm, while numerous SQST-1 aggregates accumulate in autophagy mutants (Tian et al., 2010). The AnkB WT peptide fused with the Cherry reporter (Cherry::AnkB WT) or Cherry::AnkB WR was expressed under the control of the nfya-1 promoter, which is expressed ubiquitously from the embryonic to adult stages. The expression plasmids were injected into animals carrying integrated SQST-1::GFP reporter (bpIs151) and transgenic lines were obtained and analyzed.
Similarly, we also tested the blocking effect of AnkG peptides in C. elegans. […] This observation is somewhat different from that in mammalian heterologous cells. This may be explained by the different roles of the two families in different organisms. In mammal, p62 degradation is dependent on LC3 but not GABARAP (Maruyama et al., 2014), so blocking GABARAP binding has minimal effect on p62 degradation. However, in C. elegans, LGG-1 acts upstream to LGG-2 (Manil-Segalen et al., 2014; Wu et al., 2015), so blocking either of them will lead to defect in SQST-1 degradation.
Although a large collection of autophagy mutants were isolated from genetic screens (Tian et al., 2010), assays to inhibit autophagy activity in a spatiotemporal manner are not available. We investigated whether the AnkB peptide can block autophagy in a tissue- and temporal-specific manner. The AnkB peptide was expressed under the control of tissue-specific promoters, including the promoter of myo-3 for body wall muscle cells, y37A1B.5 for hypodermal cells and vha-6 for intestinal cells. The expression constructs were injected into animals carrying the corresponding tissue-specific SQST-1::GFP expression integrated lines.
We also examined whether the AnkB peptide can impair autophagy in a temporal control manner. The expression of AnkB WT was driven by the promoter of col-19, which is expressed in hypodermal cells from the young adult stage onwards.

The next test has as its target T1, LGG-2 (Caenorhabditis elegans, UniProt Q23536).
T1 sequence (Q23536 1-130): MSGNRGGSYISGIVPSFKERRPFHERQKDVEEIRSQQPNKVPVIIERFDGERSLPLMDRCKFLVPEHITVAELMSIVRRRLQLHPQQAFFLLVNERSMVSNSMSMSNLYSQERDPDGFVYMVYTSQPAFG
Nature of the test: ITC binding to purified LGG-2. The arrangement: species or system C. elegans. From the text: (§1) C. elegans provides an ideal platform to study autophagy and especially to investigate roles of different members of Atg8 in autophagy, because worms contain both GABARAP and LC3 subfamily Atg8s and yet simple enough with one gene for each subfamily (worm lgg-1 and lgg-2 are […] of GABARAP and LC3, respectively). It has also been shown earlier on that lgg-1 and lgg-2 act non-redundantly in autophagy (Wu et al., 2015). Prior to performing autophagy assays in worms, we measured the bindings of various AnkB/G LIR peptides to purified LGG-1 and LGG-2 using the same method as we have described for FIGS. 1&3.

The target of another test is LGG-1 (Caenorhabditis elegans, UniProt Q09490). Kind of test: ITC binding to purified LGG-1. The arrangement: species or system C. elegans.
Excerpt: as §1

For test [2], the system named is LC3s (LC3A, LC3B, LC3C) (Homo sapiens). Kind of test: ITC binding to LC3s.
Test [3] addresses LC3s (LC3A, LC3B, LC3C). Kind of test: ITC binding to LC3s. Set-up: species or system human. The conditions noted are these: LC3A, LC3B, LC3C.
The test system of test [4] is GABARAP-positive puncta in COS7 cells. Nature of the test: GABARAP-positive puncta in starved COS7 cells. It counts as cell-based. To be noted: COS7 cells over-expressing mCherry-tagged peptide, nutrients deprivation. From the text:
(§2) We used the well-established cultured COS7 cells for assessing autophagy inhibitions by the AnkB/G LIR peptides over-expressed in the cells. We quantified the numbers of endogenous LC3- or GABARAP-positive puncta, which represent LC3 or GABARAP-containing autophagic structures, as readouts to quantify autophagy inhibitions (Klionsky et al., 2016; Mizushima et al., 2010). After nutrients deprivation, obvious accumulations of LC3- or GABARAP-positive puncta could be observed in cells over-expressing mCherry only, indicating induction of autophagy by starvation (FIG. 6C6&E6). […] In contrast, expression of the mCherry-AnkB WR peptide had no impact on the LC3- or GABARAP-puncta numbers (i.e. with the same puncta numbers as expressing the mCherry vector control; FIG. 6C-F).

The subject of test [5] is LC3-positive puncta in COS7 cells. Nature of the test: LC3-positive puncta in starved COS7 cells. The test is classed as cell-based. To be noted: COS7 cells over-expressing mCherry-tagged peptide, nutrients deprivation.
Excerpt: as §2

The test system of test [6] is LC3s (LC3A, LC3B, LC3C). To be noted: recently identified LC3 binding sequence (Cheng et al., 2016; Olsvik et al., 2015); cited from earlier work.
Where [7] appears, read: mCherry::AnkG peptides, embryonic stage (FIG. 10B-D).

“And” between values parts separate entries of the source, which are not always exact repeats. Equal values may be shown once.

Chain of LGG-1 (Q09490 1-116 limits assumed): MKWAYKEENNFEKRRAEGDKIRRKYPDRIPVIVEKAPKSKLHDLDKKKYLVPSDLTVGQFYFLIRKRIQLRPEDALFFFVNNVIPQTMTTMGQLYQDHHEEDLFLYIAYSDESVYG

On to `CC[C@H](C)[C@H](NC(=O)[C@H](CCC(=O)O)NC(=O)[C@H](CCC(=O)O)NC(=O)[C@H](CO)NC(=O)[C@H](CO)NC(=O)[C@H](Cc1ccccc1)NC(=O)[C@H](CCC(=O)O)NC(=O)[C@@H](NC(=O)[C@H](Cc1c[nH]c2ccccc12)NC(=O)[C@H](CC(=O)O)NC(=O)[C@H](CC(=O)O)NC(=O)[C@H](CCC(=O)O)NC(=O)[C@@H]1CCCN1)[C@@H](C)O)C(=O)N[C@@H](CCCNC(=N)N)C(=O)N[C@@H](CCC(=O)O)C(=O)N[C@@H](C)C(=O)N[C@@H](CCCNC(=N)N)C(=O)N[C@@H](CCC(N)=O)C(=O)N[C@@H](C)C(=O)N[C@@H](C)C(=O)N[C@@H](C)C(=O)N[C@@H](CO)C(=O)N[C@@H](Cc1c[nH]cn1)C(=O)N[C@@H](C)C(=O)N1CCC[C@H]1C(=O)N[C@@H](CO)C(=O)O` [AnkG LIR], for which the “binding to GABARAP stronger than almost all reported bindings between LIR motifs and Atg8s” value in the test on GABARAP (ITC) was around 1000 fold. Also, the Kd on GABARAP (isothermal titration calorimetry (ITC)) is ~2.6 nM and 2.6 nM. For the same molecule, in [1], the “p62-positive puncta versus mCherry vector control” value is on record as “obviously increased”. In addition, in test [1] (COS7 cells), the “p62 puncta increase compared with AnkB WT peptide” value is recorded as “significantly lower”. Moreover, the “SQST-1::GFP aggregates” value is listed as “caused accumulation of SQST-1::GFP aggregates” in the test with SQST-1::GFP (Cherry fusion, hyp7 promoter, epidermis, embryonic to adult stages); “a large number of SQST-1::GFP aggregates accumulate” with SQST-1::GFP (Phyp7::mCherry::AnkG peptides, hypodermis, L4 larvae); “accumulation of the SQST-1::GFP aggregates” with SQST-1::GFP (setting [7]). Besides, the “weaker affinity towards LGG-2 than LGG-1” value at LGG-2 was “about 130 fold”. Moreover, the “binding to LGG-1 (in words)” value on LGG-1 is “binds strongly”. For the same molecule, the “binding to LC3 (in words)” value in test [2] is listed as “much weaker affinity than to GABARAPs”. On LC3s (LC3A, LC3B, LC3C) [3], the “Kd values of binding to the LC3s” value is reported as “hundreds to thousands”. Moreover, the GABARAP-positive puncta number entry in test [4] is “potently inhibited”. For the same molecule, the LC3-positive puncta number entry in test [5] is “only modestly reduced”.

As to “AnkG W1989R: AnkG LIR with Trp1989 substituted by Arg; negative and specificity control (PEDDRTEFSSEEIREARQAAASHAPS; AnkG W1989R rat recombinant peptide, prepared in the lab)”, the “binding to GABARAP (in words)” value with GABARAP (ITC) is given as “dramatic weakening”. Further, the “p62-positive puncta versus mCherry vector control” value in test [1] is given as “neither of the AnkB/G WR peptides could induce p62-positive puncta increase”. In addition, the “SQST-1::GFP aggregates” value in the test with SQST-1::GFP (setting [7]) is given as “no SQST-1::GFP aggregates”. Further, the “binding to LC3 (in words)” value in test [2] was “dramatic weakening”. The GABARAP-positive puncta number result in test [4] is recorded as “did not see any noticeable changes”. Besides, in test [5], the LC3-positive puncta number result is reported as “did not see any noticeable changes”.

For the molecule “FYCO1 LIR: recently identified LC3 binding sequence from FYCO1 with a one-turn helix extension (DDAVFDIITDEELCQIQESGSSLPET; FYCO1 recombinant human sequence, prepared in lab)”, the “binding to LC3 compared with bindings of AnkB LIR to Atg8” value in the test with LC3s (LC3A, LC3B, LC3C) [6] is “significantly weaker”.
